{
  "source": "patent US20150031045A1",
  "about": "“MARKERS FOR DIAGNOSING AMYOTROPHIC LATERAL SCLEROSIS” (University Of Maryland, priority 2012, published 2015)",
  "key": {"SERCA2": {"tested_on": "SERCA2", "experiment": "SERCA2 protein level in skeletal muscle by western blot", "type": "in vivo, mice", "conditions": "10 mg/kg ip daily", "excerpt": "(§1) The superficial (SP) and deep (DP) portions of the gastrocnemius muscle (SP GAS and DP GAS, respectively) were used for analysis of Ca^2+ regulatory protein levels by western blot. Anatomically, the gastrocnemius muscle is composed of a lateral and medial head, with a similar mixture of fibres types in the two heads: lateral gastrocnemius is 69% fast glycolytic (FG), 30% fast oxidative and glycolytic (FOG) and 1% slow oxidative (SO) fibres and medial gastrocnemius is 55% FG, 32% FOG and 8% SO. The muscle was divided by superficial vs. deep portions due to their glycolytic (white) vs. oxidative (red) differences, respectively. […] Protein levels were determined using a BCA protein kit (Thermo Scientific). […] For assessment of changes in sarcoplasmic reticulum (SR)/endoplasmic reticulum (ER) Ca^2+ (SERCA) pump, SERCA1 and SERCA2 protein levels were measured. Specifically, 15 μg protein was loaded on 8% gels and analyzed by polyacrylamide gel electrophoresis (PAGE). Levels of parvalbumin (PV) were assessed by loading 2.5 μg protein on 15% gels. […] Level of each respective protein was quantified by chemiluminescence using SuperSignal West Dura Chemiluminescent Substrate (Thermo Scientific) and imaged using a chemiluminescence imaging system (GeneGnome, Syngene). Protein expression levels are expressed as Arbitrary Units (AU). […]"}, "G93A*SOD1 ALS mice [1]": {"tested_on": "G93A*SOD1 ALS mice", "experiment": "Stride length test", "type": "in vivo", "conditions": "10 mg/kg ip daily; p=0.13", "protocol": "(§2) The study used 12 mice. At 35 d, mice were assigned to treatment groups. The 3 groups in the study were: i) wild-type control mice treated with vehicle (CON-Veh; n=4; 3 female (F) and 1 male (M)); ii) G93A*SOD1 ALS mice treated with vehicle (ALS-Veh; n=4; 3 F and 1 M; and iii) G93A*SOD1 mice treated with 6-Gingerol (ALS-Gin; n=4; 3 F and 1 M). There were no 6-gingerol treated control mice due to cost of the drug.\n(§3) 6-gingerol was purchased from Carbosynth Limited, UK. Mice were dosed daily with intraperitoneal (ip) injection of vehicle (0.4% ethanol in PBS) or 6-gingerol at a dose of 10 mg/kg. Treatment began when mice were 35 d old and terminated at 115 d. The volume dosed was adjusted weekly according to changes in body weight.\nBriefly, fore- and hind-limb paws are dipped in non-toxic paint and mice walk across a 120 cm table covered in white paper. A dark box with food is placed at the far end to encourage walking across the table. The distance between the fore- and hind-limb ink marks are then measured. Four strides per mouse are quantified and the average stride length determined"}, "IRE1α": {"tested_on": "IRE1α", "experiment": "IRE1α protein level in gastrocnemius muscle by western blot", "type": "in vivo, mice", "conditions": "n=5", "protocol": "(§4) As described above in Examples 15-18, ALS mice administered 6-gingerol had improved muscle function, improved intracellular calcium clearance, increased SERCA1 protein levels, and decreased CHOP protein levels. To further examine the response of skeletal muscle to 6-gingerol treatment, the levels of ER stress proteins PERK, GRP78/BiP, PDI, and IRE1α were measured in the gastrocnemius muscle of control (CON) and G93A*SOD1 (ALS) mice treated with vehicle (Veh) or 6-gingerol (Gin). Specifically, the protein levels were measured by western blotting. Each group had five mice, i.e., CON (n=5), ALS-Veh (n=5), and ALS-Gin (n=5)."}, "GRP78/BiP": {"tested_on": "GRP78/BiP", "experiment": "GRP78/BiP protein level in gastrocnemius muscle by western blot", "type": "in vivo, mice", "conditions": "n=5", "protocol": "as §4"}, "PERK": {"tested_on": "PERK", "experiment": "PERK protein level in gastrocnemius muscle by western blot", "type": "in vivo, mice", "conditions": "n=5", "protocol": "as §4"}, "[2]": {"experiment": "Body weight of G93A*SOD1 ALS mice treated with 6-gingerol", "type": "in vivo", "protocol": "as §2, §3\nIn this study, mice were evaluated at an average age of 115±5 d (for CON-Veh, ALS-Veh and ALS-Gin), just prior to severe symptom onset. […] There was also a significant reduction in muscle mass in ALS vs. CON mice and a 21% improvement in muscle mass with 6-gingerol (CON-Veh: 0.111±0.015 g; ALS-Veh: 0.075±0.010 g; ALS-Gin 0.090±0.007 g) (FIG. 22, left panel, and Table 4)."}, "SR Ca^2+ ATPase (SERCA)": {"tested_on": "SR Ca^2+ ATPase (SERCA)", "experiment": "Maximum Ca2+ ATPase activity in skeletal muscle homogenates", "type": "in vivo, mice", "conditions": "10 mg/kg 6-gingerol for 10 weeks, p<0.05 vs. ALS-Veh", "protocol": "To further examine the effects of 6-gingerol treatment, maximum Ca^2+ ATPase activity was measured in control (CON) and G93A*SOD1 (ALS) mice treated with vehicle (Veh) or 6-gingerol (Gingerol). Specifically, ALS mice received 10 mg/kg 6-gingerol for 10 weeks. The vehicle was administered in parallel to the CON-Veh and ALS-Veh groups of mice.\nSR Ca^2+ ATPase (SERCA) activity in skeletal muscle homogenates obtained from the mice was then measured and the average data for all groups is shown in FIG. 31, in which CON (n=5), ALS-Veh (n=5), and ALS-Gin (n=5). In FIG. 31, *=p<0.05 vs. CON-Veh and #=p<0.05 vs. ALS-Veh."}, "CHOP": {"tested_on": "CHOP", "experiment": "CHOP protein level in gastrocnemius muscle by western blot", "type": "in vivo, mice", "conditions": "10 mg/kg ip daily; p<0.05 vs. ALS-Veh", "protocol": "Total protein was determined using a BCA protein assay kit (Thermo Scientific). Samples were then solubilized in loading buffer and denatured (5 min at 100° C.). For assessment of changes in protein expression levels, 15-30 μg total protein were loaded on bis-acrylamide gels and analyzed by polyacrylamide gel electrophoresis (PAGE). The amount of protein loaded for each endpoint was determined by separate analysis of the linear range for each antibody. Samples were then transferred to PVDF membrane (Millipore) and blocked with 5% (w/v) non-fat dry milk powder in Tris-buffered saline (pH 8.0) for 1 hr. […] Secondary antibodies were detected using HRP-linked chemiluminescence with SuperSignal West Dura Chemiluminescence Substrate (Thermo Scientific) and imaged using a chemiluminescence imaging system (GeneGnome, Syngene). The signal for the target protein of each sample was quantified and expressed in arbitrary unit (AU) and then values for each ALS and CON mouse expressed as a ratio relative to the first CON mouse (CON1) at each age. […]\nThe response of skeletal muscle to the ER stress markers was also assessed in response to gingerol treatment, namely by examining the levels of the apoptotic factor CHOP."}, "G93A*SOD1 ALS mice [3]": {"tested_on": "G93A*SOD1 ALS mice", "experiment": "Grip function test", "type": "in vivo", "conditions": "10 mg/kg ip daily", "protocol": "as §2, §3\nBriefly, mice are placed on a metal grid (20 cm wide, 40 cm long; grid placed 40 cm above table) and allowed to grip with fore- and hind-limb paws prior to inverting the grid. Timing begins once the grid is inverted and stops once the mouse can no longer hold the lid."}, "G93A*SOD1 ALS mice [4]": {"tested_on": "G93A*SOD1 ALS mice", "experiment": "Gastrocnemius muscle mass and muscle mass index", "type": "in vivo", "protocol": "as §2, §3\nSpecifically, muscle function was assessed using a grip test and a walking or stride test at the termination of the study. After conclusion of the grip function and stride function tests, the mice were then sacrificed and skeletal muscle tissues weighed to determine muscle mass."}, "PDI": {"tested_on": "PDI", "experiment": "PDI protein level in gastrocnemius muscle by western blot", "type": "in vivo, mice", "conditions": "n=5", "protocol": "as §4"}, "SERCA1": {"tested_on": "SERCA1", "experiment": "SERCA1 protein level in gastrocnemius muscle by western blot", "type": "in vivo, mice", "conditions": "10 mg/kg ip daily; levels nearing those in CON muscle; p<0.05 vs. ALS-Veh", "excerpt": "as §1"}, "[5]": {"tested_on": "single muscle fibres from the flexor digitorum brevis (FDB) muscle", "experiment": "Intracellular Ca2+ handling (Fura-2) in single muscle fibres from treated mice", "type": "in vivo", "protocol": "For e-c coupling measurements, fibres were loaded with 1 μM Fura-2 AM in MEM/FBS media for 15 min at room temperature. Fura-2 AM media was then removed by quick centrifugation and fibres were resuspended in fresh MEM/FBS media. Fibres loaded with Fura-2 were placed in a culture/stimulation chamber (Cell MicroControls) containing parallel electrodes on top of a Nikon TiU microscope. Once in the chamber, fibres were continuously perfused with stimulating tyrode (121 mM NaCl, 5 mM KCl, 1.8 mM CaCl2, 0.5 mM MgCl2, 0.4 mM NaH2PO4, 24 mM NaHCO3, and 5.5 mM glucose) pH 7.3 when continuously bubbled with 95% O2/5% CO2 using a Gilson Minipuls 3 peristaltic pump and vacuum pump. Intracellular Ca^2+ levels were assessed by Fura-2 fluorescence ratio (ratio of excitation at 340 and 380 nm; emission at 510 nm) using the IonOptix Hyperswitch system, with the Hyperswitch enabling collection of ratiometric data at a frequency of 250 Hz. Ratios were converted to intracellular free Ca^2+ concentration ([Ca^2+]i). The Fura-2 ratio was calibrated in vivo using the Ca^2+ ionophore A23187 and 10 mM EGTA or 1 mM CaCl2, with Rmin and Rmax determined to be 0.33 and 3.50, respectively. The Kd for Ca^2+ for Fura-2 was 224 nM.\nFura-2 loaded single fibres were stimulated using 350 ms tetani, 0.5 ms pulse duration at 10, 30, 50, 70 and 100, 120 and 150 Hz stimulation frequencies (S48 Square Pulse Stimulator, GRASS Technologies) with one minute rest between frequencies. All single fibre data was collected at room temperature (23 degrees Celsius). […]\nAfter conclusion of the grip function and stride function tests, mice were then sacrificed and single muscle fibres were obtained immediately from the flexor digitorum brevis (FDB) muscle and intracellular Ca^2+ handling assessed using Fura-2 as discussed above in Example 1. Changes in Fura-2 ratio, representing changes in [Ca^2+]i, were measured under resting conditions and in response to electrical stimulation at a range of physiological frequencies (10-150 Hz). […]"}},
  "note": "“Also recorded” adds a separate entry of the source.",
  "data": [
    {"smiles": "CCCCC[C@H](O)CC(=O)CCc1ccc(O)c(OC)c1", "note": "[6-gingerol]", "values": [
      {"measurement": "SERCA2 protein level, rescue of the decrease with 6-gingerol treatment", "setting": "SERCA2", "result": "minimal rescue"},
      {"measurement": "Stride length, difference ALS-Gin vs. ALS-Veh", "setting": "G93A*SOD1 ALS mice [1]", "result": "tendency to improve; also recorded: did not reach statistical significance"},
      {"measurement": "IRE1α protein level, ALS-Gin compared to ALS-Veh", "setting": "IRE1α", "result": "decreased"},
      {"measurement": "GRP78/BiP protein level, ALS-Gin compared to ALS-Veh", "setting": "GRP78/BiP", "result": "decreased"},
      {"measurement": "PERK protein level, ALS-Gin compared to ALS-Veh", "setting": "PERK", "result": "decreased"},
      {"measurement": "Effect of 6-gingerol on body weight", "setting": "[2]; ALS-Gin vs. ALS-Veh, 10 mg/kg ip daily, 10 mg/kg", "result": "no significant improvement"},
      {"measurement": "Body weight", "setting": "[2]; ALS-Gin: G93A*SOD1 mice, 10 mg/kg ip daily from 35 d, evaluated at 115±5 d, CON-Veh 21.0±2.7, ALS-Veh 17.8±1.4", "result": "18.2 ± 0.7", "unit": "g"},
      {"measurement": "Ca^2+ ATPase maximum activity (SERCA activity), ALS-Gin relative to ALS-Veh", "setting": "SR Ca^2+ ATPase (SERCA)", "result": "increased; also recorded: restored Ca^2+ ATPase maximum activity"},
      {"measurement": "CHOP protein level in skeletal muscle, ALS-Gin vs. ALS-Veh", "setting": "CHOP", "result": "significantly attenuated"},
      {"measurement": "Grip test time, difference ALS-Gin vs. ALS-Veh", "setting": "G93A*SOD1 ALS mice [3]; p<0.10", "result": "did not reach significance"},
      {"measurement": "Grip function, % of CON-Veh level", "setting": "G93A*SOD1 ALS mice [3]; ALS-Gin, ALS-Veh 17% of CON-Veh, p=0.08", "result": 42, "unit": "%"},
      {"measurement": "Muscle mass index (mg muscle per g body weight), reduction in ALS", "setting": "G93A*SOD1 ALS mice [4]; ALS-Gin vs. ALS-Veh", "result": "attenuated"},
      {"measurement": "Improvement in muscle mass with 6-gingerol", "setting": "G93A*SOD1 ALS mice [4]; ALS-Gin vs. ALS-Veh, 10 mg/kg ip daily", "result": 21, "unit": "%"},
      {"measurement": "Gastrocnemius muscle mass", "setting": "G93A*SOD1 ALS mice [4]; ALS-Gin, 10 mg/kg ip daily 35-115 d, CON-Veh 0.111±0.015, ALS-Veh 0.075±0.010", "result": "0.090 ± 0.007", "unit": "g"},
      {"measurement": "PDI protein level, ALS-Gin compared to ALS-Veh", "setting": "PDI", "result": "decreased"},
      {"measurement": "SERCA1 protein level in gastrocnemius muscle, ALS-Gin compared to ALS-Veh", "setting": "SERCA1", "result": "dramatic increase"},
      {"measurement": "Effect of 6-gingerol on peak Fura-2 ratio (10 Hz)", "setting": "[5]; ALS-Gin vs. ALS-Veh", "result": "no attenuation; also recorded: no improvement"},
      {"measurement": "Ca^2+ decay time, ALS-Gin vs. ALS-Veh", "setting": "[5]; single FDB fibres, after 50 and 100 Hz tetani, p<0.11", "result": "tendency for improvement; also recorded: trend for single fibres from ALS-Gin to have a faster decay time"},
      {"measurement": "Resting Fura-2 ratio, ALS-Gin vs. ALS-Veh", "setting": "[5]; single FDB fibres, p=0.13", "result": "lower but did not reach statistical significance; also recorded: tendency for Fura-2 ratio to be lower"}
    ]}
  ]
}
